# Results: US9879243B2, “Culture medium for cell growth and transfection” (LIFE TECHNOLOGIES CORPORATION, priority 2001, dated 2018)
# How the values were obtained:
# 293 cells = test: Effect of replacement compounds on the growth of 293 cells in 293 SFM without transferrin, three passages; type: cell-based, human; details: third passage
# Protocol: Semi-confluent adherent cultures of 293 Cells (ATCC, CRL 1573) are readily adapted to suspension culture. The cells are first detached with a solution of Trypsin-EDTA (0.05% Trypsin, 0.53 mM Na4EDTA), and then resuspended in conventional medium supplemented with 10% FBS to inhibit the trypsin. The resuspended cells are centrifuged at 200×g for five minutes.
# The initial seeding density of the 293 cells after conversion to suspension culture is 1×10^6 cells/mL. The cells are shaken on a rotary shaker at 150 rpm in a 37° C. incubator equilibrated with 8% CO2-92% air. […] Because 293 cells have a tendency to aggregate, the cells can be vortexed vigorously for approximately 45 seconds to obtain a predominantly single cell suspension at the time of passaging and counting. After several passages in suspension culture, the maximum achievable density can be determined.
# For replacement compound evaluation, 293 cells were established in 125 mL shaker flasks at an initial viable seeding density of 2×10^5 cells/mL in a final volume of 20 mL. All cultures were maintained at 37° C. in humidified air containing 8% CO2. To eliminate transferrin carry-over effects, cells were subcultured at 4 day intervals for a total of three passages. At each subculturing, cells were seeded at a density of 2×10^5 cells/mL. Positive control cultures contained 5 μg/mL human holo-transferrin while negative control cultures were established in the absence of either transferrin or replacement compound. Replacement compound stocks were prepared at 0.1M-0.2M in ddH2O and solubilized when necessary using 5N NaOH or HCl. Iron complexes were established using 0.2 M replacement compound and iron stocks mixed 1:1 (v/v) and incubated for 5-10 minutes at 22° C. All solutions containing replacement compounds were filter sterilized using a 0.22 μm Millex-GV filter prior to addition to transferrin and serum-free media.
# Except where noted, replacement compounds were evaluated either alone or in combination with ferric chloride or ferrous sulfate at 25 μM, 50 μM and 100 μM. When used in combination, the replacement compounds were used in equimolar concentration with iron ions. Values in Table 4 represent the mean percentage of control growth for duplicate cultures determined at the third passage.
# When added to the medium formulation uncomplexed, the replacement compound is listed alone, when added as a complex with a transition metal, the source of the transition metal is listed with the replacement compound.
# Sp2/0 cells = test: Effect of replacement compounds on the growth of Sp2/0 cells in CD Hybridoma medium without transferrin, three passages; type: cell-based; details: third passage
# Protocol: The ability of replacement compounds to support cellular growth in the absence of transferrin was evaluated using Sp2/0 cells maintained in CD Hybridoma medium (Invitrogen Corporation, Carlsbad, Calif.).
# Stock cultures containing 5 μg/mL human holo-transferrin were prepared in CD Hybridoma medium. For replacement compound evaluation, Sp2/0 cells were established at an initial viable cell density of 0.5×10^5 cells/mL in stationary culture using 75 cm^2 tissue culture flasks in a final volume of 20 mL. All cultures were maintained at 37° C. in humidified air containing 8% CO2. To eliminate transferrin carry-over effects, cells were subcultured at the same seeding density at 4 day intervals for a total of three passages. Positive control cultures contained 5 μg/mL human holo-transferrin while negative control cultures were established in the absence of either transferrin or replacement compound. Replacement compound stocks were prepared at 0.1M-0.2M in ddH2O and solubilized when necessary using 5N NaOH or HCl. Iron complexes were established using 0.2M replacement compound and iron stocks mixed 1:1 (v/v) and incubated for 5-10 minutes at 22° C. All solutions containing replacement compounds were filter sterilized using a 0.22 μm Millex-GV filter prior to addition to transferrin and serum-free media.
# Except where otherwise noted, replacement compounds were evaluated either alone or in combination with ferric chloride or ferrous sulfate at 25 μM, 50 μM and 100 μM. Values in the table represent the mean percentage of control growth for duplicate cultures determined at the third passage.
# When added to the medium formulation un-complexed, the replacement compound is listed alone, when added as a complex with a transition metal, the source of the transition metal is listed with the replacement compound.
# [1] = 100 μM, control 5 μg/mL human holo-transferrin
# [2] = 25 μM, control 5 μg/mL human holo-transferrin
# [3] = 25 μM, control 5 μg/mL human holo-transferrin, iron equimolar where combined
# [4] = 50 μM, control 5 μg/mL human holo-transferrin
compound,measurement,setting,value
2-Hydroxynicotinic Acid•Ferric Chloride,mean percentage of control growth,293 cells; [1],0 percentage of control growth
same,mean percentage of control growth,293 cells; 150 μM,0 percentage of control growth
same,mean percentage of control growth,293 cells; 200 μM,99 percentage of control growth
same,mean percentage of control growth,Sp2/0 cells; [2],64 percentage of control growth
same,mean percentage of control growth,Sp2/0 cells; 50 μM,82 percentage of control growth
same,mean percentage of control growth,Sp2/0 cells; 100 μM,85 percentage of control growth
"[Cl][Fe]([Cl])[Cl].c1ccc(-c2ccccn2)nc1 [2,2-Dipyridyl•Ferric Chloride]",mean percentage of control growth,293 cells; [3],51 percentage of control growth
same,mean percentage of control growth,293 cells; [4],96 percentage of control growth
same,mean percentage of control growth,293 cells; [1],0 percentage of control growth
O=C(O)c1ccccn1.O=S(=O)([O-])[O-].[Fe+2] [2-Pyridinecarboxylic Acid•Ferrous Sulfate],mean percentage of control growth,293 cells; [3],67 percentage of control growth
same,mean percentage of control growth,293 cells; [4],48 percentage of control growth
same,mean percentage of control growth,293 cells; [1],0 percentage of control growth
Cc1occc(=O)c1O.[Cl][Fe]([Cl])[Cl] [3-Hydroxy-2-Methyl-4-Pyrone•Ferric Chloride],mean percentage of control growth,Sp2/0 cells; [2],60 percentage of control growth
same,mean percentage of control growth,Sp2/0 cells; 50 μM,71 percentage of control growth
same,mean percentage of control growth,Sp2/0 cells; 100 μM,75 percentage of control growth
O=[N+]([O-])c1ncccc1O.[Cl][Fe]([Cl])[Cl] [3-Hydroxy-2-Nitropyridine•Ferric Chloride],mean percentage of control growth,Sp2/0 cells; [2],52 percentage of control growth
same,mean percentage of control growth,Sp2/0 cells; 50 μM,62 percentage of control growth
same,mean percentage of control growth,Sp2/0 cells; 100 μM,72 percentage of control growth
[O-][n+]1cccc(O)c1 [3-Hydroxypyridine-N-Oxide],mean percentage of control growth,293 cells; [3],4 percentage of control growth
same,mean percentage of control growth,293 cells; [4],4 percentage of control growth
same,mean percentage of control growth,293 cells; [1],4 percentage of control growth
CC(=O)N[C@@H](CS)C(=O)O.[Cl][Fe]([Cl])[Cl] [N-Acetyl-Cysteine•Ferric Chloride],mean percentage of control growth,293 cells; [3],88 percentage of control growth
same,mean percentage of control growth,293 cells; [4],82 percentage of control growth
same,mean percentage of control growth,293 cells; [1],52 percentage of control growth
O=C(O)CN(CC(=O)O)CC(=O)O [Nitriloacetic Acid],mean percentage of control growth,Sp2/0 cells; [2],0 percentage of control growth
same,mean percentage of control growth,Sp2/0 cells; 50 μM,0 percentage of control growth
same,mean percentage of control growth,Sp2/0 cells; 100 μM,0 percentage of control growth
Acetohydroxamic Acid•Ferric Chloride,mean percentage of control growth,293 cells; [3],83 percentage of control growth
same,mean percentage of control growth,293 cells; [4],22 percentage of control growth
same,mean percentage of control growth,293 cells; [1],0 percentage of control growth
same,mean percentage of control growth,Sp2/0 cells; 5 μM,40 percentage of control growth
same,mean percentage of control growth,Sp2/0 cells; 10 μM,48 percentage of control growth
same,mean percentage of control growth,Sp2/0 cells; 20 μM,47 percentage of control growth
Asparagine•Ferric Chloride,mean percentage of control growth,Sp2/0 cells; [2],36 percentage of control growth
same,mean percentage of control growth,Sp2/0 cells; 50 μM,51 percentage of control growth
same,mean percentage of control growth,Sp2/0 cells; 100 μM,54 percentage of control growth
Glutamic Acid•Ferric Chloride,mean percentage of control growth,293 cells; [3],102 percentage of control growth
same,mean percentage of control growth,293 cells; [4],68 percentage of control growth
same,mean percentage of control growth,293 cells; [1],83 percentage of control growth
Glutamine•Ferric Chloride,mean percentage of control growth,Sp2/0 cells; [2],36 percentage of control growth
same,mean percentage of control growth,Sp2/0 cells; 50 μM,55 percentage of control growth
same,mean percentage of control growth,Sp2/0 cells; 100 μM,65 percentage of control growth
Glycine•Ferric Chloride,mean percentage of control growth,293 cells; [3],81 percentage of control growth
same,mean percentage of control growth,293 cells; [4],71 percentage of control growth
same,mean percentage of control growth,293 cells; [1],72 percentage of control growth
same,mean percentage of control growth,Sp2/0 cells; [2],34 percentage of control growth
same,mean percentage of control growth,Sp2/0 cells; 50 μM,61 percentage of control growth
same,mean percentage of control growth,Sp2/0 cells; 100 μM,56 percentage of control growth
Mimosine•Ferric Chloride,mean percentage of control growth,293 cells; [3],64 percentage of control growth
same,mean percentage of control growth,293 cells; [4],55 percentage of control growth
same,mean percentage of control growth,293 cells; [1],80 percentage of control growth
Morpholine•Ferric Chloride,mean percentage of control growth,Sp2/0 cells; [2],54 percentage of control growth
same,mean percentage of control growth,Sp2/0 cells; 50 μM,64 percentage of control growth
same,mean percentage of control growth,Sp2/0 cells; 100 μM,81 percentage of control growth
Myo-lnositol•Ferric Chloride,mean percentage of control growth,293 cells; [3],79 percentage of control growth
same,mean percentage of control growth,293 cells; [4],87 percentage of control growth
same,mean percentage of control growth,293 cells; [1],85 percentage of control growth
Nitriloacetic Acid•Ferrous Sulfate,mean percentage of control growth,293 cells; [3],75 percentage of control growth
same,mean percentage of control growth,293 cells; [4],95 percentage of control growth
same,mean percentage of control growth,293 cells; [1],0 percentage of control growth
Sorbitol•Ferrous Sulfate,mean percentage of control growth,293 cells; [3],58 percentage of control growth
same,mean percentage of control growth,293 cells; [4],69 percentage of control growth
same,mean percentage of control growth,293 cells; [1],83 percentage of control growth
